Patent publication US8802597B2, “Herbicidal pyrimidines” (E I du Pont de Nemours and Company, priority 2003, dated 2014)

Legend:
Type in all cases: in vivo
[1] = tested on: barnyardgrass (Echinochloa crus-galli); assay: Test A pre/postemergence
How it was run: (§1)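 Seeds sown in loam–sand blend received a preemergence directed soil spray of test chemical in non-phytotoxic solvent with surfactant; same-formulation postemergence spray given concurrently to plants 2–10 cm tall at 1- to 2-leaf stage. Greenhouse ~ten days, then visual injury rating versus untreated controls, 0 (no effect) to 100 (complete control).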

[2] = tested on: crabgrass (Digitaria sanguinalis); assay: Test A pre/postemergence
How it was run: as §1

[3] = tested on: giant foxtail (Setaria faberi); assay: Test A pre/postemergence
How it was run: as §1

[4] = tested on: morningglory (Ipomoea spp.); assay: Test A pre/postemergence
How it was run: as §1

[5] = tested on: redroot pigweed (Amaranthus retroflexus); assay: Test A pre/postemergence
How it was run: as §1

[6] = tested on: velvetleaf (Abutilon theophrasti); assay: Test A pre/postemergence
How it was run: as §1

[7] = tested on: barnyardgrass (Echinochloa crus-galli); assay: Test E flooded paddy water application; settings: Flood, 21 days, scale 0 to 100 (0 no effect, 100 complete control)
How it was run: (§2)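 Response scored visually on a 0–100 scale (100 = complete control) at 21 days against untreated pots. Treatment was into paddy water 3 cm deep over silt loam, with plants at the 2.0–2.5-leaf stage, grown under 16-h light at 29.5/26.7 °C day/night.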

[8] = tested on: bearded (brdd.) sprangletop (Leptochloa fusca ssp. fascicularis); assay: Test E flooded paddy water application; settings: Flood, 21 days, scale 0 to 100 (0 no effect, 100 complete control)
How it was run: as §2

[9] = tested on: ducksalad (Heteranthera limosa); assay: Test E flooded paddy water application; settings: Flood, 21 days, scale 0 to 100 (0 no effect, 100 complete control)
How it was run: as §2

[10] = tested on: early watergrass (Echinochloa oryzoides); assay: Test E flooded paddy water application; settings: Flood, 21 days, scale 0 to 100 (0 no effect, 100 complete control)
How it was run: as §2

[11] = tested on: junglerice (Echinochloa colona); assay: Test E flooded paddy water application; settings: Flood, 21 days, scale 0 to 100 (0 no effect, 100 complete control)
How it was run: as §2

[12] = tested on: late watergrass (Echinochloa oryzicola); assay: Test E flooded paddy water application; settings: Flood, 21 days, scale 0 to 100 (0 no effect, 100 complete control)
How it was run: as §2

[13] = tested on: purple redstem (Ammannia coccinea); assay: Test E flooded paddy water application; settings: Flood, 21 days, scale 0 to 100 (0 no effect, 100 complete control)
How it was run: as §2

[14] = tested on: rice flatsedge (Cyperus iria); assay: Test E flooded paddy water application; settings: Flood, 21 days, scale 0 to 100 (0 no effect, 100 complete control)
How it was run: as §2

[15] = tested on: smallflower umbrella sedge (Cyperus difformis); assay: Test E flooded paddy water application; settings: Flood, 21 days, scale 0 to 100 (0 no effect, 100 complete control)
How it was run: as §2

[16] = tested on: transplanted rice seedlings (Oryza sativa cv. ‘Japonica-M202’); assay: Test E flooded paddy water application; settings: Flood, 21 days, scale 0 to 100 (0 no effect, 100 complete control)
How it was run: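 Greenhouse pots of Tama silt loam with weeds and rice at 2.0–2.5-leaf stage, flooded to 3 cm; compounds applied directly into paddy water, depth maintained. Visual rating versus untreated controls after 21 days, 0 (no effect) to 100 (complete control); 29.5/26.7 °C, 16-h photoperiod.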

[17] = tested on: water seeded rice seedlings (Oryza sativa cv. ‘Japonica-M202’); assay: Test E flooded paddy water application; settings: Flood, 21 days, scale 0 to 100 (0 no effect, 100 complete control)
How it was run: as §2

[18] = Postemergence, 125 g ai/ha, 0 to 100 scale (0 no effect, 100 complete control)
[19] = Postemergence, 500 g ai/ha, 0 to 100 scale (0 no effect, 100 complete control)
[20] = Preemergence, 125 g ai/ha, 0 to 100 scale where 0 is no effect and 100 is complete control, approximately ten days
[21] = Preemergence, 500 g ai/ha, 0 to 100 scale where 0 is no effect and 100 is complete control, approximately ten days

CCOC(=O)c1nc(-c2ccc(Cl)cc2F)nc(N)c1Br [Compound 69]
0: Plant response rating, Barnyardgrass [1, 18] | Plant response rating, Barnyardgrass [1, 20] | Plant response rating, Foxtail, Giant [3, 18] | Plant response rating, Morningglory [4, 20] | Plant response rating, Morningglory [4, 21] | Barnyardgrass plant response rating ([7]; 32 g ai/ha) | Barnyardgrass plant response rating ([7]; 64 g ai/ha) | Barnyardgrass plant response rating ([7]; 125 g ai/ha) | Plant response rating, Barnyardgrass ([7]; 16 g ai/ha) | Sprangletop, Brdd. plant response rating ([8]; 32 g ai/ha) | Sprangletop, Brdd. plant response rating ([8]; 64 g ai/ha) | Sprangletop, Brdd. plant response rating ([8]; 125 g ai/ha) | Sprangletop, Brdd. plant response rating ([8]; 250 g ai/ha) | Plant response rating, Sprangletop, Brdd. ([8]; 16 g ai/ha) | Watergrass, Early plant response rating ([10]; 32 g ai/ha) | Watergrass, Early plant response rating ([10]; 64 g ai/ha) | Watergrass, Early plant response rating ([10]; 125 g ai/ha) | Watergrass, Early plant response rating ([10]; 250 g ai/ha) | Plant response rating, Watergrass, Early ([10]; 16 g ai/ha) | Junglerice plant response rating ([11]; 32 g ai/ha) | Junglerice plant response rating ([11]; 64 g ai/ha) | Junglerice plant response rating ([11]; 125 g ai/ha) | Junglerice plant response rating ([11]; 250 g ai/ha) | Plant response rating, Junglerice ([11]; 16 g ai/ha) | Watergrass, Late plant response rating ([12]; 32 g ai/ha) | Watergrass, Late plant response rating ([12]; 64 g ai/ha) | Watergrass, Late plant response rating ([12]; 125 g ai/ha) | Watergrass, Late plant response rating ([12]; 250 g ai/ha) | Plant response rating, Watergrass, Late ([12]; 16 g ai/ha) | Redstem plant response rating ([13]; 32 g ai/ha) | Redstem plant response rating ([13]; 64 g ai/ha) | Redstem plant response rating ([13]; 125 g ai/ha) | Plant response rating, Redstem ([13]; 16 g ai/ha) | Sedge, Umbrella plant response rating ([15]; 32 g ai/ha) | Plant response rating, Sedge, Umbrella ([15]; 16 g ai/ha) | Rice, Transplanted plant response rating ([16]; 32 g ai/ha) | Rice, Transplanted plant response rating ([16]; 64 g ai/ha) | Rice, Transplanted plant response rating ([16]; 125 g ai/ha) | Rice, Transplanted plant response rating ([16]; 250 g ai/ha) | Plant response rating, Rice, Transplanted ([16]; 16 g ai/ha) | Rice, Water Seeded plant response rating ([17]; 32 g ai/ha) | Rice, Water Seeded plant response rating ([17]; 64 g ai/ha) | Rice, Water Seeded plant response rating ([17]; 125 g ai/ha) | Rice, Water Seeded plant response rating ([17]; 250 g ai/ha) | Plant response rating, Rice, Water Seeded ([17]; 16 g ai/ha)
15: Plant response rating, Barnyardgrass [1, 21]
10: Plant response rating, Foxtail, Giant [3, 20]
35: Plant response rating, Velvetleaf [6, 20]
95: Plant response rating, Ducksalad ([9]; 16 g ai/ha)
65: Plant response rating, Pigweed [5, 20] | Plant response rating, Velvetleaf [6, 21] | Plant response rating, Flatsedge, Rice ([14]; 16 g ai/ha)
40: Plant response rating, Crabgrass [2, 19]
100: Ducksalad plant response rating ([9]; 32 g ai/ha) | Ducksalad plant response rating ([9]; 64 g ai/ha) | Ducksalad plant response rating ([9]; 125 g ai/ha) | Ducksalad plant response rating ([9]; 250 g ai/ha) | Flatsedge, Rice plant response rating ([14]; 64 g ai/ha) | Flatsedge, Rice plant response rating ([14]; 125 g ai/ha) | Flatsedge, Rice plant response rating ([14]; 250 g ai/ha) | Sedge, Umbrella plant response rating ([15]; 250 g ai/ha)
70: Flatsedge, Rice plant response rating ([14]; 32 g ai/ha)
5: Plant response rating, Barnyardgrass [1, 19]
90: Plant response rating, Morningglory [4, 19] | Plant response rating, Pigweed [5, 18] | Plant response rating, Pigweed [5, 19] | Plant response rating, Velvetleaf [6, 19] | Sedge, Umbrella plant response rating ([15]; 125 g ai/ha)
30: Redstem plant response rating ([13]; 250 g ai/ha) | Sedge, Umbrella plant response rating ([15]; 64 g ai/ha)
85: Plant response rating, Pigweed [5, 21] | Plant response rating, Velvetleaf [6, 18]
55: Plant response rating, Foxtail, Giant [3, 19]
50: Plant response rating, Crabgrass [2, 20] | Plant response rating, Foxtail, Giant [3, 21]
75: Plant response rating, Crabgrass [2, 21] | Plant response rating, Morningglory [4, 18]
20: Plant response rating, Crabgrass [2, 18]
